Reference: patent publication US6905852B1, “Herbicide-resistant protoporphyrinogen oxidase isolated from Nicotiana tabacum” (Nihon Nohyaku Co., Ltd., priority 1997, dated 2005)
In brackets after ≈: the same amount, converted by molar mass.

Key:
[1] = target: T1, E. coli SASX38 strain having pBAtPX-RC with Arabidopsis thaliana resistant type protoporphyrinogen oxidase cDNA (Arabidopsis thaliana, UniProt P55826, A220V); test: Growth inhibition of E. coli SASX38 (liquid culture with shaking); type: cell-based
T1 construct: expressed in transfected cells; host or cells: E. coli SASX38 (hemG-deficient) carrying pBAtPX-RC (pBluescript SK(-))
Method: (§1) The E. coli SASX38 strain containing either of the above-described two kinds of plasmid was cultured with shaking in LB liquid medium containing 50 μg/ml of ampicillin at 28° C. for overnight.

[2] = target: T2, E. coli SASX38 strain having pBAtPX-C with Arabidopsis thaliana wild type protoporphyrinogen oxidase gene (Arabidopsis thaliana, UniProt P55826); test: as above; type: cell-based; conditions: Arabidopsis thaliana wild type (pBAtPX-C); read-out: IC50, growth of E. coli
T2 construct: expressed in transfected cells; host or cells: E. coli SASX38 (hemG-deficient) carrying pBAtPX-C (pBluescript SK(-))
T2 sequence (P55826 35-537): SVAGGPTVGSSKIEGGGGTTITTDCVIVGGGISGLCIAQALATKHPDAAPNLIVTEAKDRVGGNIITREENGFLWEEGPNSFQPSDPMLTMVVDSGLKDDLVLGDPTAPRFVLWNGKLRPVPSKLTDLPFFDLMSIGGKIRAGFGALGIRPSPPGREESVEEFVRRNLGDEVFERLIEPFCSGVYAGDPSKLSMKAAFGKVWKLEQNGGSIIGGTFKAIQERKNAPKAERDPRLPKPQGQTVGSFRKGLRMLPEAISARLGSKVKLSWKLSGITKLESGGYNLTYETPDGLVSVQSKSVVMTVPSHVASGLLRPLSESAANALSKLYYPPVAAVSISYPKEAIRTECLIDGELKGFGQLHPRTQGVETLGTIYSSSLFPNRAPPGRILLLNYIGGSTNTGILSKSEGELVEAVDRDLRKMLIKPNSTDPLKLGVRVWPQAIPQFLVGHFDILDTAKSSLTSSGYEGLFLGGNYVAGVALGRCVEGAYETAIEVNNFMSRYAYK
Method: as §1

[3] = target: T3, E. coli SASX38 strain having pCR-HC with tobacco wild type protoporphyrinogen oxidase cDNA (Nicotiana tabacum, UniProt O24163); test: as above; type: cell-based; conditions: E. coli containing pCR-HC; read-out: IC50, growth of E. coli inhibited by 50%
T3 construct: expressed in transfected cells; host or cells: E. coli SASX38 (hemG-deficient) carrying pCR-HC
T3 sequence (O24163 51-548): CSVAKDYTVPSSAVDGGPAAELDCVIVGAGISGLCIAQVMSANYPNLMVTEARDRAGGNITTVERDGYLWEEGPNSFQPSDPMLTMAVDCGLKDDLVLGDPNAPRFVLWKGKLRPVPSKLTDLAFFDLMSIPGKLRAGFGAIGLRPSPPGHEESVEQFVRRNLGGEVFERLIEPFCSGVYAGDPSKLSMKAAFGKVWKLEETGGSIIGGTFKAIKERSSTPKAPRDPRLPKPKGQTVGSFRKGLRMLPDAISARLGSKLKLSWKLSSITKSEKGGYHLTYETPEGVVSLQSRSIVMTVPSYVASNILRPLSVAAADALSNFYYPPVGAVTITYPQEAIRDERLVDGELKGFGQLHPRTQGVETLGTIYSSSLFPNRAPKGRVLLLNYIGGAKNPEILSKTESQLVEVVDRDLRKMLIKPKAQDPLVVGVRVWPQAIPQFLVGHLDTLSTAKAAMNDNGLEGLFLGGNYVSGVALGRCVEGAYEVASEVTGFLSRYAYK
Method: as §1

[4] = target: T4, E. coli SASX38 strain having pCR-RC with tobacco resistant type protoporphyrinogen oxidase gene (Nicotiana tabacum, UniProt O24163, A174P/A191P/A231V/T382S); test: as above; type: cell-based
T4 construct: expressed in transfected cells; host or cells: E. coli SASX38 (hemG-deficient) carrying pCR-RC
Method: as §1

[5] = test system: E. coli SASX38 strain having pCR-RC with tobacco resistant type protoporphyrinogen oxidase gene; test: as above; type: cell-based, Nicotiana tabacum; conditions: tobacco
Method: as §1

[6] = test system: ETR-056; test: MIC on MS agar medium, cross-resistance to herbicides; type: cell-based, Nicotiana tabacum
Text: (§2) Further, cross-resistance of a resistant strain tolerant to herbicides with various modes of action was examined. Sensitivity to fomesafen (trade mark: FLEX) and oxadiazon (trade mark: RONSTAR), which are photobleaching herbicide and accumulate protoporphyrin IX; pyrazoxyfen (trademark: PAICER) which is a chlorophyll synthesis inhibitor and causes bleaching; DPX-84 and bialaphos (trademark: BASTA) and glyphosate (trademark: ROUNDUP) which are an inhibitor of the amino acid synthesis; butachlor (trademark: MACHETE) which is a protein synthesis inhibitor; propanil (trademark: STAM) which is an inhibitor of light synthesis photochemical system II and paraquat (trademark: PREEGLOX) which is an inhibitor of photosystem I and produces an active oxygen was compared. Into MS agar medium containing each herbicides, each resistant strain was transplanted and minimum inhibition concentration (MIC) was measured. […] From the above results, ETR-056 was thought to have resistance to an active oxygen caused by overproduction of superoxide dismutase, and ETR-253 was thought to have resistance to many herbicides caused by decreasing of a membrane permeability, and ETR-245 was thought to have resistance caused by mutation of a target enzyme or overproduction of a target enzyme.
(§3) MIC of compound A to the sensitive cell lines, ETR-056, ETR-245 and ETR-253 were measured.

[7] = test system: Sensitive strain; test: as above; type: cell-based, Nicotiana tabacum; conditions: sensitive cell line
Text: as §2, §3

[8] = test system: ETR-253; test: as above; type: cell-based, Nicotiana tabacum
Text: as §2, §3

[9] = test system: ETR-245; test: as above; type: cell-based, Nicotiana tabacum
Text: as §2, §3

[10] = test system: non-transformed tobacco plant; test: Leaf disk method, bleaching; type: cell-based, N. Tabacum var. SR1
Method: From the transformed plant with which the confirmation of introduction of gene was finished, and non-transformed plant used as a control, a leaf almost the same position of the leaf was picked and 9 mm diameter leaf disks were prepared, and floated on a dish in which 0, 125, 250, 1,250, 2,500, 5,000, 12,500 nM of compound A aqueous solution were contained. After incubation at 27° C. for one week under continuous strong light, the bleaching of the leaf disks was observed, and the permissive concentration to compound A was calculated. As a result (Table 7), in case that the tolerant type of protoporphirinogen oxidase cDNA from tobacco was introduced by pBI-NtPX-RC, more than 100 times of tolerance was observed comparing to the control non-transformed plant. However, in case that rsistant type cDNA from Arabidopsis thaliana was introduced by pBI-AtPX-RC, 4 times of resistance was observed comparing to the control, and in case that the wild type cDNA was introduced, high resistance was not observed in each case.

T1 sequence (P55826 35-537 A220V): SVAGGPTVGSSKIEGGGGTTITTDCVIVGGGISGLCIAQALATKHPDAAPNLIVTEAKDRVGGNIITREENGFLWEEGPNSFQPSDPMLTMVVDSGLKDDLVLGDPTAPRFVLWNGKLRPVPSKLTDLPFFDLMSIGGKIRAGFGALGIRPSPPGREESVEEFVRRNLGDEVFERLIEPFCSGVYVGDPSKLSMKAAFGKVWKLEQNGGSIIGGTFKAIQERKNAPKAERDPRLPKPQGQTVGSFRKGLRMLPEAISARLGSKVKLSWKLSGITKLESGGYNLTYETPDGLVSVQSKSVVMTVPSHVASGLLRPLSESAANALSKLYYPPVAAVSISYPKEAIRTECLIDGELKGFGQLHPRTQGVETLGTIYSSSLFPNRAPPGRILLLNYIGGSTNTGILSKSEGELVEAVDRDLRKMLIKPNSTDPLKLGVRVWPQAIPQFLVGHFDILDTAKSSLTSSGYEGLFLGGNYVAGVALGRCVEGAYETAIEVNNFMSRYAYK
T4 sequence (O24163 whole entry A174P/A191P/A231V/T382S): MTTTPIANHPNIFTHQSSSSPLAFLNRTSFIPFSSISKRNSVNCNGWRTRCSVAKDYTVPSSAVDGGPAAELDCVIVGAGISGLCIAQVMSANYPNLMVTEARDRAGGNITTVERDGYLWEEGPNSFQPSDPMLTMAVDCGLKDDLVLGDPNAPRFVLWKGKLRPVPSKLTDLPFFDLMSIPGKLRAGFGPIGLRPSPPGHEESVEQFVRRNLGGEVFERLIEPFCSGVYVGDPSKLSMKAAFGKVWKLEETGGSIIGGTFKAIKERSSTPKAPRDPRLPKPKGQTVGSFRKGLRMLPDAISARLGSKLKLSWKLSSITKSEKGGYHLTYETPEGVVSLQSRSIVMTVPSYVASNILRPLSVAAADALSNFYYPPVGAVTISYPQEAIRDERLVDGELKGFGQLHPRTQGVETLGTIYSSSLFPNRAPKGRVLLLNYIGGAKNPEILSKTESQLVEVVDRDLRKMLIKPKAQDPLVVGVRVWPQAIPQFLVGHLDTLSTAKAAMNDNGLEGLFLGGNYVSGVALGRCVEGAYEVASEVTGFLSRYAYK

Compound: CCOC(=O)COc1cc(-c2nn(C)c(OC(F)F)c2Cl)c(F)cc1Cl [Compound A, ethyl 2-chloro-5-(4-chloro-5-difluoromethoxy-1-methyl-1H-pyrazol-3-yl)-4-fluorophenoxyacetate]
- IC50 [1]: 1500 nM
- R/S ratio (IC50 value of the resistant type/IC50 value of the wild type) ([1]; Arabidopsis thaliana): about 300
- IC50 [2]: ~5 nM
- IC50 [3]: ~2.5 nM
- IC50 [4]: ≥ 10000 nM
- R/S ratio (IC50 value of a resistant type/IC50 value in a wild type) [5]: over 4,000
- MIC [6]: over 2,400 nM
- MIC [7]: 5 nM (≈ 2.07 ng/mL)
- MIC [8]: over 2,400 nM
- MIC [9]: over 2,400 nM
- Resistance ([10]; Introduced gene: None (reference)): 1 X
- Permission conc. to compound A ([10]; Introduced gene: None, one week, continuous strong light): 125 nM
